From US20250207131A1, “MODIFIED RNA AGENTS WITH REDUCED OFF-TARGET EFFECT” (Alnylam Pharmaceuticals, Inc., priority 2018, published 2025)

Assays:
[1] = target: T1, DNA Pol-γ (Homo sapiens, UniProt P54098); assay: Triphosphate incorporation assay by DNA Pol-γ; assay type: biochemical; settings: 100 nM template, 100 nM primer, 40 Units of enzyme, 1 mM or 100 μM dNTPs, 30 min, 37° C.
T1 sequence (P54098 1-1239): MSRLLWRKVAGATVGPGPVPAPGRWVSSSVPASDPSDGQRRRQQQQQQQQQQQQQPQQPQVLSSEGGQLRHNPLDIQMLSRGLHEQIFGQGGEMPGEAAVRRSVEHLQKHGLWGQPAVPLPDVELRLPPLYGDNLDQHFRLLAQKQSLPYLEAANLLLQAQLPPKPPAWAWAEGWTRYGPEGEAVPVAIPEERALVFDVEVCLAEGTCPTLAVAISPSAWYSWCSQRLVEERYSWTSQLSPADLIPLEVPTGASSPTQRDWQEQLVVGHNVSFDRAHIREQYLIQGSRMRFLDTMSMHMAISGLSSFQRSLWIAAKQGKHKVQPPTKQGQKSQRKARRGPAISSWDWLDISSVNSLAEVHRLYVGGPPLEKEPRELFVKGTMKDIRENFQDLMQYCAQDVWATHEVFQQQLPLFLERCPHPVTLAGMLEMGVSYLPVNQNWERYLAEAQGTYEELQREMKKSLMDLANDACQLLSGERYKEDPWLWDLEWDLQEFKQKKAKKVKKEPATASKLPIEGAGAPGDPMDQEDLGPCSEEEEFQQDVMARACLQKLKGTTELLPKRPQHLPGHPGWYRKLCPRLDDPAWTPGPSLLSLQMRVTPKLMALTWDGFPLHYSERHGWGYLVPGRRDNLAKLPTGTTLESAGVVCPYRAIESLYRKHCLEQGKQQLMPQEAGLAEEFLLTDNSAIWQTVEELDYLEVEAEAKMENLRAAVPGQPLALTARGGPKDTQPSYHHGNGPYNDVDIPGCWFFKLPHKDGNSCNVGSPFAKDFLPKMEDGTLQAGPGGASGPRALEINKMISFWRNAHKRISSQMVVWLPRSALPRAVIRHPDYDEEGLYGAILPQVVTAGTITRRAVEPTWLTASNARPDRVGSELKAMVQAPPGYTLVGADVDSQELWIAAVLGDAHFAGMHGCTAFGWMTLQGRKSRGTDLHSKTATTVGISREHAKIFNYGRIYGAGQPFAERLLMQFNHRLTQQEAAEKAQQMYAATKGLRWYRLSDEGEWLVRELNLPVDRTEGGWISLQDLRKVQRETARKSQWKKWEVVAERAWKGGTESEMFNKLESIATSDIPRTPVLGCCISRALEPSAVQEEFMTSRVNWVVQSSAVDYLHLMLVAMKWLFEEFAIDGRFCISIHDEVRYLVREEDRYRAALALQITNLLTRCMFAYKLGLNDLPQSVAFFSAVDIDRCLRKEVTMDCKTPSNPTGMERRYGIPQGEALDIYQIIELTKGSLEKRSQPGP
Protocol: (§1) 5′-(R)- and (S)—C-Me-guanosine triphosphate Evaluations: 5′-(R)- and (S)—C-Me-guanosine triphosphate were evaluated with Pol-RMT and DNA Pol-γ. Mitochondrial toxicity is a common feature with nucleoside analog drugs (liver/metabolic effects, myopathies, peripheral neuropathy). Replication of mitochondria occurs during all phases of cell cycle, including post-mitotic cells. Mito replication in post-mitotic cells becomes preferential consumer of endogenous nucleotide pools. Mitochondrial polymerases (pol-γ, Pol-RMT) have limited exonuclease (proofreading) capability. Alterations/effects to nuclear DNA more likely to manifest in other test systems. […] Analytical IEX-HPLC with fluorescence detection for optimal resolution of primer-extended products is used to detect—especially important in competition mixtures. This assays was applied for the assessment of incorporation efficiencies.
The reaction conditions were: Reaction: 100 nM template, 100 nM primer, 40 Units of enzyme and 1 mM or 100 μM dNTPs, 30 min, 37° C.; diluted to 5 nM primer and analyzed by FLD-IEX-HPLC (Ex: 437, Em: 483 nm).

[2] = target: Pol-RMT (Homo sapiens, UniProt O00411); assay: Triphosphate incorporation assay by Pol-RMT; assay type: biochemical; settings: 200 nM template, 50 nM primer, 300 nM enzyme, 1 mM or 100 μM NTPs, 30 min, 35° C.
Sequence of Pol-RMT (O00411 42-1230, species assumed): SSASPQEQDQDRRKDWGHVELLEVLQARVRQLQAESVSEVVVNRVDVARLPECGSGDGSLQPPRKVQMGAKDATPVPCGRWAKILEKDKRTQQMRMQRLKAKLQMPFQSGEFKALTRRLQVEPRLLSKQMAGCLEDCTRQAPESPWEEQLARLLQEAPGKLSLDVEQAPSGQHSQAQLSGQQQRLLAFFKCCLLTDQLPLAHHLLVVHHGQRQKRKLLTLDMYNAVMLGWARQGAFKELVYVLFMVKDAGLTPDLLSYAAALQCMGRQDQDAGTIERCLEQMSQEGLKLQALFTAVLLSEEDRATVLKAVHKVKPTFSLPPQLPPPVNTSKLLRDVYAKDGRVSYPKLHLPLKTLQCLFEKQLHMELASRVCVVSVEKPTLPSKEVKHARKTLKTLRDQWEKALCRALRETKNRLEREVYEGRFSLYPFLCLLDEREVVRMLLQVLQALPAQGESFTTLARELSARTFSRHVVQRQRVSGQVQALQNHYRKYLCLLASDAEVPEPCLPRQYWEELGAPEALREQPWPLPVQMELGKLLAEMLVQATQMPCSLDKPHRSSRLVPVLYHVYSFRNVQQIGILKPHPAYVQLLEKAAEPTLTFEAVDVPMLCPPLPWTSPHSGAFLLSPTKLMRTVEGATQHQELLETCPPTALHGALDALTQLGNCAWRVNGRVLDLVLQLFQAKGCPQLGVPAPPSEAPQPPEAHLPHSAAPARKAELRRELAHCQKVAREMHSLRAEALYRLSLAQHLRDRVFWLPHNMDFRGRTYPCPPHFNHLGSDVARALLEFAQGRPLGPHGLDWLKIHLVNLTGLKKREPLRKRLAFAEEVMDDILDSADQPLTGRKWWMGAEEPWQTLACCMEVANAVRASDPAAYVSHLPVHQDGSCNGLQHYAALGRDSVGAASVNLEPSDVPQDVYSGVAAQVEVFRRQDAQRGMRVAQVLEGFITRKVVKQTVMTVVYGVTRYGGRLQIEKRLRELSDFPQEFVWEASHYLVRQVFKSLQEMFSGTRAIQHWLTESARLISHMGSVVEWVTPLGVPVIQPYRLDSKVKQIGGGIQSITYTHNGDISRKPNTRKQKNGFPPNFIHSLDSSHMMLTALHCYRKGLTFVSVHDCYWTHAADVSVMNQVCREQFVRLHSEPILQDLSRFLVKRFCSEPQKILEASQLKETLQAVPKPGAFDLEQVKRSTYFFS
Protocol: as §1
The reaction conditions were; 200 nM template, 50 nM primer, 300 nM enzyme and 1 mM or 100 μM NTPs, 30 min, 35° C.

[3] = system: GO1 (HAO1); assay: In vitro on-target activity, primary mouse hepatocytes, transfection, RT-qPCR (GO1/HAO1 siRNAs); assay type: cell-based; settings: HAO1 (Seq 1)
Protocol: Cell culture and transfections: Primary Mouse Hepatocytes (Thermo Fisher Scientific/Gibco) were transfected by adding 4.9 μL of Opti-MEM plus 0.1 μL of Lipofectamine RNAiMax per well (Invitrogen, cat #13778-150) to 5 μL of siRNA duplexes per well into a 384-well plate and incubated at room temperature for 15 minutes. 40 μL of Dulbecco's Modified Eagle Medium (Hep3b) or William's Medium (PMH) containing ˜5 ×10^3 cells were then added to the siRNA mixture. Cells were incubated for 24 hours at 37° C. and then processed for RNA purification. Experiments were performed at 10 nM and 0.1 nM doses of siRNA.
Total RNA isolation using DYNABEADS mRNA Isolation Kit: RNA was isolated using an automated protocol on a BioTek-EL406 platform using DYNABEADs (Invitrogen, cat #61012). Briefly, 70 μL of Lysis/Binding Buffer and 10 μL of lysis buffer containing 3 μL of magnetic beads were added to each well. […]
Real time PCR: 2 μL of cDNA were added to a master mix containing 2 μL water, 0.5 μL of either an appropriate GAPDH TaqMan VIC Probe or the target probe and 5 μL Lightcycler 480 probe master mix (Roche, cat #04887301001) per well in a 384 well plate (Roche, cat #04887301001). […] To calculate relative fold change, real time data were analyzed using the ΔΔCt method and normalized to assays performed with cells transfected with a non-targeting control siRNA.

[4] = Rat toxicity study, clinical pathology parameters; settings: rats, single subcutaneous dose 30 mg/kg, cohort average
[5] = rat, in vivo, sc, 30 mg/kg
[6] = system: luciferase reporter plasmids (psiCHECK2, Renilla luciferase fused to target sequence); assay: Off-target Dual-Glo luciferase reporter assay in COS-7 cells; assay type: cell-based; settings: HAO1 (Seq 1); luciferase reporter plasmids co-transfected with siRNAs into COS-7 cells
Protocol: Dual-Glo® Luciferase assay: Cos7 cells (ATCC, Manassas, VA) were grown to near confluence at 37° C. in an atmosphere of 5% CO2 in DMEM (ATCC) supplemented with 10% FBS, before being released from the plate by trypsinization. siRNA and psiCHCECK2 plasmid transfection was carried out by adding 5 μL of siRNA duplexes and 5 μL of psiCHECK2 plasmid per well along with 5 μL of Opti-MEM plus 0.1 μL of Lipofectamine 2000 per well (Invitrogen, Carlsbad CA. cat #13778-150) and then incubated at room temperature for 15 minutes. The mixture was then added to the cells which were re-suspended in 35 ul of fresh complete media. The transfected cells were incubated at 37° C. in an atmosphere of 5% CO2.
48 hours after the siRNAs and psiCHECK2 plasmid were transfected; Firefly (transfection control) and Renilla (fused to target sequence) luciferase were measured. First, media was removed from cells. Then Firefly luciferase activity was measured by adding 20 μL of Dual-Glo® Luciferase Reagent equal to the culture medium volume to each well and mix. The mixture was incubated at room temperature for 30 minutes before luminescence (500 nm) was measured on a Spectramax (Molecular Devices) to detect the Firefly luciferase signal. Renilla luciferase activity was measured by adding 20 μL of room temperature of Dual-Glo® Stop & Glo® Reagent was added to each well and the plates were incubated for 10-15 minutes before luminescence was again measured to determine the Renilla luciferase signal. The Dual-Glo® Stop & Glo® Reagent, quenches the firefly luciferase signal and sustained luminescence for the Renilla luciferase reaction. siRNA activity was determined by normalizing the Renilla signal to the Firefly (control) signal within each well. The magnitude of siRNA activity was then assessed relative to cells that were transfected with the same vector but were not treated with siRNA or were treated with a non-targeting siRNA. All transfections were done at n=2 or greater.

**Q.** What does the source list for `C[C@@H](OP(=O)(O)OP(=O)(O)OP(=O)(O)O)[C@H]1O[C@@H](n2cnc3c(=O)[nH]c(N)nc32)[C@H](O)[C@@H]1O` [5′-(R)—C-Me-GTP, 5′-(R)—C-Me-guanosine triphosphate]?
**A.** incorporation by Pol-γ [1]: Neither 5′-(S) nor (R)—C-Me-Gtp incorporate in Pol-γ at high concentrations; incorporation by Pol-RMT [2]: appears not incorporate in Pol-RMT

**Q.** Which results are given for `C[C@H](OP(=O)(O)OP(=O)(O)OP(=O)(O)O)[C@H]1O[C@@H](n2cnc3c(=O)[nH]c(N)nc32)[C@H](O)[C@@H]1O` [5′-(S)—C-Me-G triphosphate (GTP), 5′-(S)—C-Me-guanosine triphosphate]?
**A.** incorporation by Pol-γ [1]: Neither 5′-(S) nor (R)—C-Me-Gtp incorporate in Pol-γ at high concentrations; incorporation by Pol-RMT [2]: incorporates in Pol-RMT at high concentrations

**Q.** Which “On-Target mRNA remaining (%) 0.1 nM siRNA” value ([3]; 0.1 nM siRNA) does the source give for “Parent (AD-65644): GO1 siRNA; passenger g•a•auguGaaAGucaucgacaa(L), guide u•U•gucGaUGacuuUcAcauuc•u•g (sense AUGUGAAAGUCAUCGACAA; antisense GUCGAUGACUUUCACAUUC; phosphorothioate ends, overhangs, chemistry not fully specified)” here?
**A.** 96.1%

**Q.** And the “On-Target mRNA remaining (%) 10 nM siRNA” value ([3]; 10 nM siRNA)?
**A.** 27.7%

**Q.** What about the “ALB Avg.” value [4] of the same molecule?
**A.** 3.0 g/dL

**Q.** And the “ALP Avg.” value [4]?
**A.** 449 U/L

**Q.** What about the “ALT Avg.” value [4] of the same molecule?
**A.** 47 U/L

**Q.** And the “AST Avg.” value [4]?
**A.** 180 U/L

**Q.** What about the “BILI Avg.” value [4] of the same molecule?
**A.** 0.52 mg/dL

**Q.** What about the “CA Avg.” value [4] of the same molecule?
**A.** 10.3 mg/dL

**Q.** And the “CHOL Avg.” value [4]?
**A.** 74 mg/dL

**Q.** And the “CREAT Avg.” value [4]?
**A.** 0.23 mg/dL

**Q.** And the “GLDH Avg.” value [4]?
**A.** 77.5 U/L

**Q.** What about the “GLOB Avg.” value [4] of the same molecule?
**A.** 2.63 g/dL

**Q.** And the “GLUC Avg.” value [4]?
**A.** 113 mg/dL

**Q.** And the “K Avg.” value [4]?
**A.** 4.3 mmol/L

**Q.** And the “NA Avg.” value [4]?
**A.** 140 mmol/L

**Q.** What about the “PHOS Avg.” value [4] of the same molecule?
**A.** 8.8 mg/dL

**Q.** What about the “PROT Avg.” value [4] of the same molecule?
**A.** 6 g/dL

**Q.** And the “TRIG Avg.” value [4]?
**A.** 138 mg/dL

**Q.** What about the “UREAN Avg.” value [4] of the same molecule?
**A.** 16.8 mg/dL

**Q.** And the “A/G Avg.” value [5]?
**A.** 1.1

**Q.** And the IC50 [6]?
**A.** 0.53 nM
